# Reference: ChEMBL document CHEMBL4354875, “Structural Basis for EGFR Mutant Inhibition by Trisubstituted Imidazole Inhibitors” (J Med Chem, 2020)
# Assays:
# [1] = molecular target: Epidermal growth factor receptor (Homo sapiens, UniProt P00533, L858R/T790M); experiment: Inhibition of human EGFR L858R/T790M mutant using poly[Glu:Tyr] (4:1) as substrate measured in presence of [gamma-33P]ATP by radiometric assay
# [2] = molecular target: Epidermal growth factor receptor (Homo sapiens, UniProt P00533, C797S/L858R/T790M); experiment: Inhibition of human EGFR L858R/T790M/C797S mutant using poly[Glu:Tyr] (4:1) as substrate measured in presence of [gamma-33P]ATP by radiometric assay
# Sequence of Epidermal growth factor receptor (Homo sapiens, UniProt P00533, C797S/L858R/T790M) (P00533 25-1210 T790M/C797S/L858R limits assumed): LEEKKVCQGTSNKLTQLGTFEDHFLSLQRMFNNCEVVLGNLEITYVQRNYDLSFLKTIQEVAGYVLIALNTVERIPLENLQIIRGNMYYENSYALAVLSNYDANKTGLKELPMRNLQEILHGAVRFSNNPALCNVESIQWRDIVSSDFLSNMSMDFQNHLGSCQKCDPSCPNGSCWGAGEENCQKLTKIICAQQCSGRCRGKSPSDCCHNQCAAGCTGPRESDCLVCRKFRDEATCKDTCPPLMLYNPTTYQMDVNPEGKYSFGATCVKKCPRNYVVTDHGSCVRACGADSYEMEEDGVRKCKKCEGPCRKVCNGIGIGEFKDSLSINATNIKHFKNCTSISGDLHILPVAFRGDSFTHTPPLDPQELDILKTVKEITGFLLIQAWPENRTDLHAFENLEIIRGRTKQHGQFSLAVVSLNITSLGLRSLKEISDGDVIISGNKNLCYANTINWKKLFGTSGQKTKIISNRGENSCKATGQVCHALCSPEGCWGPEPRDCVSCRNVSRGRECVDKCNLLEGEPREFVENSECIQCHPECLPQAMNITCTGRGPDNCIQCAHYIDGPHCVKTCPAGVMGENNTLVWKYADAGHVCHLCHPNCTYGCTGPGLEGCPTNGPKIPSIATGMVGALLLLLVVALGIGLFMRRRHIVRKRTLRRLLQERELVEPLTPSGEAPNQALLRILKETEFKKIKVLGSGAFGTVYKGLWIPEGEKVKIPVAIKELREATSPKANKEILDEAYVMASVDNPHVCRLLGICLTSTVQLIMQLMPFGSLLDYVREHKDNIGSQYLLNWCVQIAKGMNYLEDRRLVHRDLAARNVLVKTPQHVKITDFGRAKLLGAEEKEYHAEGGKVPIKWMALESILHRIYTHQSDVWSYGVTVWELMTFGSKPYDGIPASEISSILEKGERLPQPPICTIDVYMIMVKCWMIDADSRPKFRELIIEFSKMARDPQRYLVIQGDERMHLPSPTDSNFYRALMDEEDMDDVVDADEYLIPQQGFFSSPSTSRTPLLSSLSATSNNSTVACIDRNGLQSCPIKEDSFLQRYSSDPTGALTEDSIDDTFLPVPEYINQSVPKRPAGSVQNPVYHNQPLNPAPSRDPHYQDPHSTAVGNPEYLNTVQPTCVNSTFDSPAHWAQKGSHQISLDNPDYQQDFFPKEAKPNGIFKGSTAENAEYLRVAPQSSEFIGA
# Sequence of Epidermal growth factor receptor (Homo sapiens, UniProt P00533, L858R/T790M) (P00533 25-1210 T790M/L858R limits assumed): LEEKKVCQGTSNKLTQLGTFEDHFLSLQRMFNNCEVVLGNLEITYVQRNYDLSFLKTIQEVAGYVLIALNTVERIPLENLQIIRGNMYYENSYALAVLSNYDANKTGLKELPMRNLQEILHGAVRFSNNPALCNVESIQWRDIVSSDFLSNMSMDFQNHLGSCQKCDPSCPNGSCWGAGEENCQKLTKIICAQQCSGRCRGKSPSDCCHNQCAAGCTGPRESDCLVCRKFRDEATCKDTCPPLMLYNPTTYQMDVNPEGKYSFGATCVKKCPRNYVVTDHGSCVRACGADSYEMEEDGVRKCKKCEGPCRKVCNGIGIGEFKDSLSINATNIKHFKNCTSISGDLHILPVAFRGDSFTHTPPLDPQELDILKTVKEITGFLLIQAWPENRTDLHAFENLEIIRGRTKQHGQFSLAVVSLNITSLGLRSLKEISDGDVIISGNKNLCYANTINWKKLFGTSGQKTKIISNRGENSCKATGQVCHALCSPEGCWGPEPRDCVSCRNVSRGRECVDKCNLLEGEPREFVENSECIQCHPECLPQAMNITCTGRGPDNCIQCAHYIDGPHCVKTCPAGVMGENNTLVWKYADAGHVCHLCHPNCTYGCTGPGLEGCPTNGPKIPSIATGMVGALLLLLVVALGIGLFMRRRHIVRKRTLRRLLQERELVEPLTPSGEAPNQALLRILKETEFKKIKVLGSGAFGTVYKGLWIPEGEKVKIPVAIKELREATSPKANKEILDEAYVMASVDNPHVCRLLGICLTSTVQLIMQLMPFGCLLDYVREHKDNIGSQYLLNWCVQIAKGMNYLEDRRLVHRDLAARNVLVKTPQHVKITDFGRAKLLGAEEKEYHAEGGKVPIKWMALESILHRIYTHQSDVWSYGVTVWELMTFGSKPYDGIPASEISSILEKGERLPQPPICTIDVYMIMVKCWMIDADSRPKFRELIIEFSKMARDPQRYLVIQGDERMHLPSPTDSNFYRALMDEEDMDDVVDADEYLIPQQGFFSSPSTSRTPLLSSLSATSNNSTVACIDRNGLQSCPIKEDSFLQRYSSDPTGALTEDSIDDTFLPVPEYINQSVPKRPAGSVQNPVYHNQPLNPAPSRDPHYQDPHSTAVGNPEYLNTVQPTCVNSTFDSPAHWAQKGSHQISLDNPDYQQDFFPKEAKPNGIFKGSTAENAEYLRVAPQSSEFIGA
IC50 [1] [nM],IC50 [2] [nM],SMILES
111,> 5000,C=CC(=O)Nc1ccc(OC)c(Nc2cc(-c3c(-c4ccc(F)cc4)nc(SC)n3C)ccn2)c1
1,> 5000,C=CC(=O)Nc1ccc(OC)c(Nc2cc(-c3nc(SC)n(C)c3-c3ccc(F)cc3)ccn2)c1
